PMC5218480 (PLoS ONE, 2017)

Test system: MV-4-11 cells
Assay: Gene expression microarray analysis (Affymetrix PrimeView) and GSEA
Assay type: cell-based, human
Set-up: RFU PODN (11730768_x_at) / Fold change /veh PODN (11730768_x_at) / RFU LINC00158 (11744669_a_at) / Fold change /veh LINC00158 (11744669_a_at) / RFU DUSP10 (11751237_a_at) / Fold change /veh DUSP10 (11751237_a_at) / RFU ID3 (11757404_x_at) / Fold change /veh ID3 (11757404_x_at) / RFU PLEKHG5 (11737974_s_at) / Fold change /veh PLEKHG5 (11737974_s_at) / RFU LRRC4B (11730491_at) / Fold change /veh LRRC4B (11730491_at) / RFU GIMAP4 (11747438_a_at) / Fold change /veh GIMAP4 (11747438_a_at) / RFU KRT8 (11758183_x_at) / Fold change /veh KRT8 (11758183_x_at) / RFU CNN1 (11734310_a_at) / Fold change /veh CNN1 (11734310_a_at) / RFU VPS37D (11726825_at) / Fold change /veh VPS37D (11726825_at) / RFU C10orf10 (11716522_x_at) / Fold change /veh C10orf10 (11716522_x_at) / RFU KIR2DL2 /// KIR2DL4 /// KIR2DL5A /// KIR2DL5B /// KIR2DS1 /// KIR2DS2 /// KIR2DS3 /// KIR2DS4 /// KIR3DL3 /// KIR3DL3 /// KIR3DS1 (11738374_at) / Fold change /veh KIR2DL2 /// KIR2DL4 /// KIR2DL5A /// KIR2DL5B /// KIR2DS1 /// KIR2DS2 /// KIR2DS3 /// KIR2DS4 /// KIR3DL3 /// KIR3DL3 /// KIR3DS1 (11738374_at) / RFU C1QL1 (11718748_at) / Fold change /veh C1QL1 (11718748_at) / RFU TMPRSS4 (11747572_a_at) / Fold change /veh TMPRSS4 (11747572_a_at) / RFU HAMP (11756126_x_at) / Fold change /veh HAMP (11756126_x_at) / RFU RNFT2 (11725882_a_at) / Fold change /veh RNFT2 (11725882_a_at) / RFU NR4A2 (11747474_a_at) / Fold change /veh NR4A2 (11747474_a_at) / RFU ABCC12 (11746883_a_at) / Fold change /veh ABCC12 (11746883_a_at) / RFU TMEM136 (11760407_x_at) / Fold change /veh TMEM136 (11760407_x_at) / RFU CLDN22 /// WWC2 (11732394_at) / Fold change /veh CLDN22 /// WWC2 (11732394_at) / RFU HLA-DPB1 (11760878_x_at) / Fold change /veh HLA-DPB1 (11760878_x_at) / RFU SPINT1 (11716480_a_at) / Fold change /veh SPINT1 (11716480_a_at) / RFU GAP43 (11754022_s_at) / Fold change /veh GAP43 (11754022_s_at) / RFU A4GNT (11735810_at) / Fold change /veh A4GNT (11735810_at) / RFU PRB3 (11715151_x_at) / Fold change /veh PRB3 (11715151_x_at) / RFU TUBB4B (11761932_at) / Fold change /veh TUBB4B (11761932_at) / RFU CAPN14 (11732068_a_at) / Fold change /veh CAPN14 (11732068_a_at) / RFU TMCC2 (11721928_a_at) / Fold change /veh TMCC2 (11721928_a_at) / RFU IRGQ (11745062_a_at) / Fold change /veh IRGQ (11745062_a_at) / RFU FAM174B (11720279_a_at) / Fold change /veh FAM174B (11720279_a_at) / RFU TMPRSS4 (11748680_a_at) / Fold change /veh TMPRSS4 (11748680_a_at) / RFU FAM212B (11763350_a_at) / Fold change /veh FAM212B (11763350_a_at) / RFU PLEKHG5 (11743358_a_at) / Fold change /veh PLEKHG5 (11743358_a_at) / RFU ZSCAN30 (11745921_a_at) / Fold change /veh ZSCAN30 (11745921_a_at) / RFU CMKLR1 (11741424_a_at) / Fold change /veh CMKLR1 (11741424_a_at) / RFU LOC101060620 /// MAPK8IP1 (11723275_at) / Fold change /veh LOC101060620 /// MAPK8IP1 (11723275_at) / RFU SPTSSB (11747773_x_at) / Fold change /veh SPTSSB (11747773_x_at) / RFU PRSS12 (11739890_at) / Fold change /veh PRSS12 (11739890_at) / RFU BIN1 (11741810_x_at) / Fold change /veh BIN1 (11741810_x_at) / RFU WNT11 (11732464_a_at) / Fold change /veh WNT11 (11732464_a_at) / RFU C10orf10 (11716521_a_at) / Fold change /veh C10orf10 (11716521_a_at) / RFU C5orf56 (11738089_at) / Fold change /veh C5orf56 (11738089_at) / RFU CYB561 (11721691_x_at) / Fold change /veh CYB561 (11721691_x_at) / RFU ANKRD19P (11752326_a_at) / Fold change /veh ANKRD19P (11752326_a_at) / RFU OR2T12 /// OR2T33 /// OR2T8 (11738714_s_at) / Fold change /veh OR2T12 /// OR2T33 /// OR2T8 (11738714_s_at) / RFU VCAN (11748164_a_at) / Fold change /veh VCAN (11748164_a_at) / RFU JSRP1 (11732532_at) / Fold change /veh JSRP1 (11732532_at) / RFU KRTAP10-11 (11738290_x_at) / Fold change /veh KRTAP10-11 (11738290_x_at) / RFU MYO3A (11730013_a_at) / Fold change /veh MYO3A (11730013_a_at) / RFU EBF3 (11725865_a_at) / Fold change /veh EBF3 (11725865_a_at) / RFU CAMK2N1 (11719241_x_at) / Fold change /veh CAMK2N1 (11719241_x_at) / RFU C5orf56 (11738088_a_at) / Fold change /veh C5orf56 (11738088_a_at) / RFU OLFML3 (11715873_a_at) / Fold change /veh OLFML3 (11715873_a_at) / RFU LOC100653217 /// NTM (11731650_a_at) / Fold change /veh LOC100653217 /// NTM (11731650_a_at) / RFU MAPK11 (11762145_a_at) / Fold change /veh MAPK11 (11762145_a_at) / RFU FIZ1 (11724087_x_at) / Fold change /veh FIZ1 (11724087_x_at) / RFU OASL (11726364_x_at) / Fold change /veh OASL (11726364_x_at) / RFU SOX15 (11748057_x_at) / Fold change /veh SOX15 (11748057_x_at) / RFU CD79A (11719716_a_at) / Fold change /veh CD79A (11719716_a_at) / RFU HIST1H1D (11736915_at) / Fold change /veh HIST1H1D (11736915_at) / RFU CASKIN2 (11723855_a_at) / Fold change /veh CASKIN2 (11723855_a_at) / RFU LOC730098 (11760151_x_at) / Fold change /veh LOC730098 (11760151_x_at) / RFU OR4N2 (11742367_at) / Fold change /veh OR4N2 (11742367_at) / RFU PRRT2 (11749266_a_at) / Fold change /veh PRRT2 (11749266_a_at) / RFU SNX32 (11753110_a_at) / Fold change /veh SNX32 (11753110_a_at) / RFU CDHR5 (11726645_a_at) / Fold change /veh CDHR5 (11726645_a_at) / RFU RCAN1 (11760418_a_at) / Fold change /veh RCAN1 (11760418_a_at) / RFU FAM167A (11723789_a_at) / Fold change /veh FAM167A (11723789_a_at) / RFU FAM26E (11764081_at) / Fold change /veh FAM26E (11764081_at) / RFU ISYNA1 (11749810_s_at) / Fold change /veh ISYNA1 (11749810_s_at) / RFU ACY1 (11761880_at) / Fold change /veh ACY1 (11761880_at) / RFU 11764098_at / Fold change /veh 11764098_at / RFU SAMD14 (11745864_x_at) / Fold change /veh SAMD14 (11745864_x_at) / RFU NPB (11741838_a_at) / Fold change /veh NPB (11741838_a_at) / RFU TMPRSS6 (11731388_a_at) / Fold change /veh TMPRSS6 (11731388_a_at) / RFU KRTAP10-2 (11738614_at) / Fold change /veh KRTAP10-2 (11738614_at) / RFU ARHGAP8 /// PRR5-ARHGAP8 (11727945_x_at) / Fold change /veh ARHGAP8 /// PRR5-ARHGAP8 (11727945_x_at) / RFU KRTAP5-7 /// NADSYN1 (11734609_at) / Fold change /veh KRTAP5-7 /// NADSYN1 (11734609_at) / RFU RASL12 (11751679_a_at) / Fold change /veh RASL12 (11751679_a_at) / RFU CDKN2B (11736163_a_at) / Fold change /veh CDKN2B (11736163_a_at) / RFU PRF1 (11729649_at) / Fold change /veh PRF1 (11729649_at) / RFU, ZNF638 /// ZNF638-IT1 / Fold change vs veh, ZNF638 /// ZNF638-IT1 / RFU, PANK3 / Fold change vs veh, PANK3 / RFU, SH3YL1 / Fold change vs veh, SH3YL1 / RFU, ZEB2 / Fold change vs veh, ZEB2 / RFU, NRIP1 / Fold change vs veh, NRIP1 / RFU, PTTG1IP / Fold change vs veh, PTTG1IP / RFU, CAPN2 / Fold change vs veh, CAPN2 / RFU, MED14 / Fold change vs veh, MED14 / RFU, SNORA58 / Fold change vs veh, SNORA58 / RFU, C1orf63 / Fold change vs veh, C1orf63 / RFU, LRRFIP1 / Fold change vs veh, LRRFIP1 / RFU, NDUFAF7 / Fold change vs veh, NDUFAF7 / RFU, SLC12A2 / Fold change vs veh, SLC12A2 / RFU, IBTK / Fold change vs veh, IBTK / RFU, ESF1 / Fold change vs veh, ESF1 / Fold change vs veh, TMEM50B / RFU, TAOK1 / Fold change vs veh, TAOK1 / RFU, ACBD3 / Fold change vs veh, ACBD3 / RFU, TMA16 / Fold change vs veh, TMA16 / RFU, RWDD3 / Fold change vs veh, RWDD3 / RFU, BCAT1 / Fold change vs veh, BCAT1 / RFU, EDEM3 / Fold change vs veh, EDEM3 / RFU, TMEM33 / Fold change vs veh, TMEM33 / RFU, WDR75 / Fold change vs veh, WDR75 / RFU, AHCTF1 / Fold change vs veh, AHCTF1 / RFU, TFRC / Fold change vs veh, TFRC / RFU, ZDHHC17 / Fold change vs veh, ZDHHC17 / RFU, NOM1 / Fold change vs veh, NOM1 / RFU, ARL8B / Fold change vs veh, ARL8B / RFU, ZBTB11 / Fold change vs veh, ZBTB11 / RFU, TAMM41 / Fold change vs veh, TAMM41 / RFU, KIAA1704 /// LOC100996395 / Fold change vs veh, KIAA1704 /// LOC100996395 / RFU, ING1 / Fold change vs veh, ING1 / RFU, TRMT61B / Fold change vs veh, TRMT61B / RFU, FUBP3 / Fold change vs veh, FUBP3 / RFU, TP53 / Fold change vs veh, TP53 / RFU, TNKS2 / Fold change vs veh, TNKS2 / RFU, ZFP14 / Fold change vs veh, ZFP14 / RFU, ACTR2 / Fold change vs veh, ACTR2 / RFU, PPP3R1 / Fold change vs veh, PPP3R1 / RFU, PIK3R1 / Fold change vs veh, PIK3R1 / RFU, HNRNPA1 / Fold change vs veh, HNRNPA1 / RFU, RNF170 / Fold change vs veh, RNF170 / RFU, ZNF28 / Fold change vs veh, ZNF28 / RFU, RNGTT / Fold change vs veh, RNGTT / RFU, OGT / Fold change vs veh, OGT / RFU, BRD1 / Fold change vs veh, BRD1 / RFU, MARS / Fold change vs veh, MARS / RFU, ZNF655 / Fold change vs veh, ZNF655 / RFU, FAHD1 / Fold change vs veh, FAHD1 / RFU, BDP1 / Fold change vs veh, BDP1 / RFU, LRRCC1 / Fold change vs veh, LRRCC1 / RFU, ARID1A / Fold change vs veh, ARID1A / RFU, ZNF146 / Fold change vs veh, ZNF146 / RFU, ZNF330 / Fold change vs veh, ZNF330 / RFU, GPN3 / Fold change vs veh, GPN3 / RFU, C9orf123 / Fold change vs veh, C9orf123 / RFU, N4BP2L2 / Fold change vs veh, N4BP2L2 / RFU, ARFIP1 / Fold change vs veh, ARFIP1 / RFU, FAM179B / Fold change vs veh, FAM179B / RFU, BCL10 / Fold change vs veh, BCL10 / RFU, UHRF1BP1L / Fold change vs veh, UHRF1BP1L / RFU, BET1 / Fold change vs veh, BET1 / RFU, CNOT2 / Fold change vs veh, CNOT2 / RFU, ZNF268 / Fold change vs veh, ZNF268 / Fold change vs veh, ZNF507 / RFU, DGCR2 / Fold change vs veh, DGCR2 / RFU, WDSUB1 / Fold change vs veh, WDSUB1 / Fold change vs veh, HSP90B1 /// MIR3652 / RFU, ADSS / Fold change vs veh, ADSS / RFU, GK / Fold change vs veh, GK / RFU, ZNF148 / Fold change vs veh, ZNF148 / RFU, TAF9 / Fold change vs veh, TAF9 / RFU, SLC1A5 / Fold change vs veh, SLC1A5 / RFU, SLMO2 / Fold change vs veh, SLMO2 / RFU, ABCC4 / Fold change vs veh, ABCC4 / RFU, LOC101060439 /// RAP1B / Fold change vs veh, LOC101060439 /// RAP1B / RFU, RFX7 / Fold change vs veh, RFX7 / RFU, GTPBP10 / Fold change vs veh, GTPBP10 / RFU, CNEP1R1 / Fold change vs veh, CNEP1R1 / RFU, BIVM-ERCC5 /// ERCC5 / Fold change vs veh, BIVM-ERCC5 /// ERCC5 / RFU, ILF3 / Fold change vs veh, ILF3 / RFU 11762660_at / Fold change /veh 11762660_at / RFU VCAN (11757783_s_at) / Fold change /veh VCAN (11757783_s_at) / RFU DDX43 (11728927_at) / Fold change /veh DDX43 (11728927_at) / RFU KRT8 (11758188_x_at) / Fold change /veh KRT8 (11758188_x_at) / RFU NKD1 (11759106_at) / Fold change /veh NKD1 (11759106_at) / RFU SRD5A1 (11742802_a_at) / Fold change /veh SRD5A1 (11742802_a_at) / RFU TPSAB1 /// TPSB2 (11721975_s_at) / Fold change /veh TPSAB1 /// TPSB2 (11721975_s_at) / RFU GSTM3 (11746129_a_at) / Fold change /veh GSTM3 (11746129_a_at) / RFU IL23R (11737362_x_at) / Fold change /veh IL23R (11737362_x_at) / RFU TMEM51 (11727254_a_at) / Fold change /veh TMEM51 (11727254_a_at) / RFU PIWIL2 (11732686_x_at) / Fold change /veh PIWIL2 (11732686_x_at) / RFU ORM1 (11744905_x_at) / Fold change /veh ORM1 (11744905_x_at) / RFU CCDC152 (11743942_at) / Fold change /veh CCDC152 (11743942_at) / RFU ECM1 (11717891_a_at) / Fold change /veh ECM1 (11717891_a_at) / RFU IL23R (11748794_a_at) / Fold change /veh IL23R (11748794_a_at) / RFU TNFAIP8L3 (11732012_x_at) / Fold change /veh TNFAIP8L3 (11732012_x_at) / RFU MBOAT4 (11741988_at) / Fold change /veh MBOAT4 (11741988_at) / RFU 11764193_at / Fold change /veh 11764193_at / RFU TMEM53 (11763286_at) / Fold change /veh TMEM53 (11763286_at) / RFU MAGEB2 (11727129_at) / Fold change /veh MAGEB2 (11727129_at) / RFU TMEM200A (11744735_a_at) / Fold change /veh TMEM200A (11744735_a_at) / RFU CCDC152 (11751479_a_at) / Fold change /veh CCDC152 (11751479_a_at) / RFU FAM211A (11726209_a_at) / Fold change /veh FAM211A (11726209_a_at) / RFU RGS16 (11746705_a_at) / Fold change /veh RGS16 (11746705_a_at) / RFU VCAN (11755009_s_at) / Fold change /veh VCAN (11755009_s_at) / RFU RHOB (11743442_s_at) / Fold change /veh RHOB (11743442_s_at) / RFU RGS16 (11720943_a_at) / Fold change /veh RGS16 (11720943_a_at) / RFU RGS16 (11720944_at) / Fold change /veh RGS16 (11720944_at) / RFU, VPS4B / Fold change vs veh, VPS4B / RFU, CREB1 / Fold change vs veh, CREB1 / RFU, DNAJC13 / Fold change vs veh, DNAJC13 / RFU, GNAQ / Fold change vs veh, GNAQ / RFU, CDK5R1 / Fold change vs veh, CDK5R1 / RFU, ZRANB3 / Fold change vs veh, ZRANB3 / RFU, CUL4A / Fold change vs veh, CUL4A / RFU, CCNY / Fold change vs veh, CCNY / RFU, UFL1 / Fold change vs veh, UFL1 / RFU, COG3 / Fold change vs veh, COG3 / RFU, DIAPH2 / Fold change vs veh, DIAPH2 / RFU, SKA2 / Fold change vs veh, SKA2 / RFU, AFF3 / Fold change vs veh, AFF3 / RFU, LMF1 / Fold change vs veh, LMF1 / RFU, IPO11 / Fold change vs veh, IPO11 / RFU, DFFB / Fold change vs veh, DFFB / RFU, FOXP1 / Fold change vs veh, FOXP1 / RFU, CARD8 / Fold change vs veh, CARD8 / RFU, STRN3 / Fold change vs veh, STRN3 / RFU, ADK / Fold change vs veh, ADK / RFU, RASSF2 / Fold change vs veh, RASSF2 / RFU, WIPF1 / Fold change vs veh, WIPF1 / RFU, LARP1B / Fold change vs veh, LARP1B / RFU, RASA1 / Fold change vs veh, RASA1 / RFU, RB1 / Fold change vs veh, RB1 / RFU, PPFIA1 / Fold change vs veh, PPFIA1 / RFU, MAT2A / Fold change vs veh, MAT2A / RFU, CCT5 / Fold change vs veh, CCT5 / RFU, WDR92 / Fold change vs veh, WDR92 / RFU, CUX1 / Fold change vs veh, CUX1 / RFU, TTC7A / Fold change vs veh, TTC7A / RFU, TMEM135 / Fold change vs veh, TMEM135 / RFU, DEPTOR / Fold change vs veh, DEPTOR / RFU, CPM / Fold change vs veh, CPM / RFU, DNAJB6 / Fold change vs veh, DNAJB6 / RFU, CACNA2D3 / Fold change vs veh, CACNA2D3 / RFU, DTX4 / Fold change vs veh, DTX4 / RFU, TFCP2 / Fold change vs veh, TFCP2 / RFU, GMCL1 /// GMCL1P1 / Fold change vs veh, GMCL1 /// GMCL1P1 / RFU, AEBP2 / Fold change vs veh, AEBP2 / RFU, SNHG1 /// SNORD22 /// SNORD25 /// SNORD26 /// SNORD27 /// SNORD28 /// SNORD29 /// SNORD31 / Fold change vs veh, SNHG1 /// SNORD22 /// SNORD25 /// SNORD26 /// SNORD27 /// SNORD28 /// SNORD29 /// SNORD31 / Fold change (Aza/veh), C12orf56 (ProbeSet 11735607_a_at) / Fold change (ACY-1035/veh), C12orf56 (ProbeSet 11735607_a_at) / Fold change (Aza/veh), FGFR1OP (ProbeSet 11751329_s_at) / Fold change (ACY-1035/veh), FGFR1OP (ProbeSet 11751329_s_at) / Fold change (Aza/veh), VPS36 (ProbeSet 11739960_a_at) / Fold change (ACY-1035/veh), VPS36 (ProbeSet 11739960_a_at) / RFU SYPL1 (11715823_x_at) / Fold change /veh SYPL1 (11715823_x_at) / RFU IGFBP7 (11715501_s_at) / Fold change /veh IGFBP7 (11715501_s_at) / RFU REEP3 (11722064_at) / Fold change /veh REEP3 (11722064_at) / RFU IGLL1 (11728026_x_at) / Fold change /veh IGLL1 (11728026_x_at): dose or concentration left out as unconfirmed
Details: ProbeSet 11721611_a_at; LIST D

Nc1ncn([C@@H]2O[C@H](CO)[C@@H](O)[C@H]2O)c(=O)n1 [azacitidine]
Fold change vs veh, IPO11: 0.66
